# Measured values as given in US12060573B2, “Stabilized amorphous calcium carbonate as a supplement for cell culture media” (AMORPHICAL LTD., priority 2016, dated 2024).
# Values joined by “and” are separate entries in the source; they are usually repeats but may differ in a detail not shown here. Identical values can stand only once. “Also recorded” adds a separate entry of the source.
# Key:
# mice embryos = experiment: In-vitro embryo development in Quinn's Advantage cleavage media; type: cell-based
# Description: CBA male mice were bred with BL C57 female mice. The mice were kept on a 12 hours photoperiod schedule with unlimited water and food supply. About 6 to 8 weeks after receiving offspring, each female mouse was injected IP with 5IU of pregnant mare serum gonadotropin (PMSG).
# After 48 hours each female mouse was injected IP with 5IU human chorionic gonadotropin (hCG). Male mice proven to be fertile were then put together with the superovulated females. The next morning the female mice were examined for the presence of copulatory plugs. Females that had copulatory plugs were euthanized after 24 hours (approximately 36 hours post-coitus) and embryos at 2 cell stage were retrieved from the oviducts as following: the oviducts were dissected in Quinn's Advantage cleavage media (SAGE, Origio, Denmark) and the embryos were transferred to 20 μL drops with Quinn's Advantage cleavage media (SAGE, Origio, Denmark) overlaid with mineral oil and cultured at 37.0° C. under 5% CO2 and atmospheric oxygen. The collected embryos continued to grow, i.e. in-vitro culture (IVC), until blastocyst/hatching stage. To test the effect of amorphous calcium carbonate, the Quinn's Advantage cleavage media (“cleavage media” hereinafter) was supplemented with different additives, i.e. amorphous calcium carbonate stabilized by polyphosphate (ACC-PP), crystalline calcium carbonate (CCC), polyphosphate (PP), phosphoserine (PS) or sodium carbonate ([…]). All supplements were added as a freshly prepared suspension; the preparation of the ACC supplements were performed under aseptic conditions. Untreated cleavage media (without addition of any additive) was used as a control (identified as Cont Q). The embryos were evaluated every day by microscope observation for a detection of the following stages: 2 cells, compactions stage, blastocysts formation and hatching stage. The fraction (in percent) of the embryos reached each stage was calculated (the number of 2 cells embryos was set as 100%).
# skeletal muscle cultures = experiment: Myotube formation and contractility in healthy skeletal muscle cultures; type: cell-based, rat; conditions: added 1 mM, final Ca2+ 2 mM
# Description: Stationary skeletal muscle cultures were prepared from healthy 1 day new born rat (Sprague Dawley, Harlan, Israel). The muscle tissue was dissected from posterior legs and was thoroughly minced. Digestion was performed with Trypsin-EDTA while gentle trituration. After 30 min the supernatant, containing dissociated cells, was collected and a fresh Trypsin-EDTA was added. This procedure was repeated two more times. Then, all supernatants were pooled, centrifuged, and the cell pellet was re-suspended in Proliferation Medium. Cells were seeded in a Gelatin coated 12 wells culture plates, 1×10^5 cells/well containing 1 mL of Proliferation Medium. Two days later, the medium was changed to Fusion Medium, which was then changed twice a week. The cultures were monitored by daily phase contrast microscopic observations from 24 hours after setting the cultures and onward.
# Stock solution of 1% porcine gelatin in water, was sterilized by autoclave. Once cooled, 500 μl of the solution were added to each well of the 12-wells culture plat. After incubation for 20 min at room temperature, the excess solution was removed, and the cells were seeded.
# For the proliferation stage, cells were cultured in: DMEM/F12 (containing 1 mM Ca^2+)+10% FBS, 25 μg/mL Gentamycin, and 2 mM L-Glutamine. […]
# mdx cell line = conditions: final Ca2+ 2 mM
# Description: Cells from the Mdx cell line were seeded in a Gelatin coated 12 wells culture plate, 3×10^4 cells/well containing 1 mL of Proliferation Medium. Two days later (˜66% confluence), the medium was changed to Fusion Medium which was changed twice a week. The various calcium preparations were separately added to the Fusion Medium according to the treatment described in Table 3. Cultures were enriched with the various calcium preparations, at Ca^2+ concentration of 1 mM. Since the medium already contained 1 mM of calcium ions, then the final concentration of Ca2+ was of 2 mM
# The effects of the tested calcium preparations on cell proliferation, fusion to form myotubes and muscle contraction were monitored by daily phase contrast microscopic observation.
# [1] = test system: spinal cord-dorsal root ganglia (SC-DRG) slices; experiment: Nerve fiber sprouting from SC-DRG co-cultures; type: cell-based, rat; conditions: Ca2+ 2 mM; 4 days of cultivation; portion of 6 explants
# Description: Neural and Vascular Reconstruction Gel ([…] Labs proprietary) is composed of two main components: high molecular hyaluronic acid (HA, 3×10^6 Da, BTG, Israel) and laminin (Sigma). […] The gel has the texture of a viscous liquid, it adheres easily and successfully the embedded cells or explants to the plastic or glass substratum, and enabled nerve fiber outgrowth in a 3D pattern. All the experiments were carried out and authorized by the local ethics committee recognized by the Israeli authorities for animal experimentation. Stationary organotypic cultures of dorsal root ganglia (DRG) and spinal cord (SC) as well as cultures of dissociated brain cells were prepared from rat fetuses (15 days of gestation, Lewis inbred, Harlan, Israel). Immediately after dissection, the isolated tissues were cut with a […] tissue chopper into small slices (of 400 μm thickness). In these studies, two tissue culture strategies were used. […] In the second method, the tissue slices were further dissociated with a trypsin-EDTA solution for 30 min, and washed with a culture medium. Subsequently, the dissociated cells were added to a suspension of chitosan powder or gastrolith powder (micro carriers, MCs) and incubated in suspension at 37° C. for 4 days. […] The cultures were monitored by daily phase contrast microscopic observations starting from 24 hours after setting the cultures onward. […]
# MBA-13 cells = experiment: Differentiation of MBA13 stem cells to osteoblasts (Alizarin red, alkaline phosphatase staining); type: cell-based; conditions: additional 1 mM calcium (total 2.488 mM); 10 days; gelatin coating
# Description: Two days following thawing, MBA-13 cells (received from Prof. Dov Zipori, Weizmann Institute of Science) were re-suspended in recombinant trypsin solution and seeded on a 96 wells plate, (Day “0”) in a concentration of 1×10^4 cells/well using MSC Nutristem® XF basal medium (Biological Industries, cat #05-200-1A) supplemented with Mesenchymal stem cells (MSC) supplement mix medium (Biological Industries cat #05-201-06) in a ratio of 50 ml:300 μl. […] Row G in the plate was treated with MSCgo medium (total 1.488 mM calcium). Row H of the plate was treated with MSC NutriStem® XF nutrient basal medium+ supplement mix (total 1.488 mM calcium). On day 4, medium was exchanged with fresh preparations of ACC. […] Once the cells were fixated, two types of staining reagents were used to stain extracellular calcium or bone deposition in order to estimate osteoblasts functionality: (i) Alizarin red (Sigma A55333) and (ii) Alkaline Phosphatase (DAKO BCIP/NBT substrate system […]) as following: Alizarin red staining procedure-pH was adjusted to 4.2. Cells were washed twice with PBS and fixed with cold methanol for 5 minutes and then washed again with PBS. […] Then, washed 3 times with PBS and following removal of PBS remnants, 3 drops of BCIP/NBT kit solution was used to cover the cells including one empty well without any cells as control to quantify the assay. […]
# [2] = Example 15, 1.7 mM, pooled embryos of mice 3-6
# [3] = Example 15, 1.7 mM, sibling embryos (mouse 1: CCC; mouse 2: ACC-PP, NaCO3)
# [4] = Example 11, 1.6 mM, pooled embryos of mice 3-7
# [5] = Example 12, pooled embryos, 1.6 mM
# [6] = Example 10, 1.7 mM, embryos of each of 4 mice grown separately, one line per mouse
# [7] = Example 14, pooled embryos, 1.7 mM
compound,measurement,setting,value
"O=C([O-])[O-].[Na+].[Na+] [NaCO3, sodium carbonate]",embryonic development compared to control or ACC-PP,"mice embryos; Example 15, 1.7 mM",very poor embryonic development
same,"8 cell/d2, number of embryos",mice embryos; [2],2
same,"Blast/d3, number of embryos",mice embryos; [2],0
same,"Blast/d4, number of embryos",mice embryos; [2],0
same,"Hatch/d4, number of embryos",mice embryos; [2],0
same,"Hatch/d4, portion of total number of embryos",mice embryos; [2],(0) %
same,"comp/d2, number of embryos",mice embryos; [2],7
same,"degenerative, number of embryos",mice embryos; [2],1
same,"early Blast/d3, number of embryos",mice embryos; [2],0
same,"8 cell/d2, number of embryos",mice embryos; [3],6
same,"Blast/d3, number of embryos",mice embryos; [3],2
same,"Blast/d4, number of embryos",mice embryos; [3],0
same,"Hatch/d4, number of embryos",mice embryos; [3],2
same,"Hatch/d4, portion of total number of embryos",mice embryos; [3],(12.5) %
same,"comp/d2, number of embryos",mice embryos; [3],8
same,"degenerative, number of embryos",mice embryos; [3],2
same,"early Blast/d3, number of embryos",mice embryos; [3],14
polyphosphate [PP],"8 cell/d2, number of embryos",mice embryos; [4],9
same,"Blast/d3, number of embryos",mice embryos; [4],20
same,"Blast/d3, portion of initial number of embryos",mice embryos; [4],54.1%
same,"Hatch/d4, number of embryos",mice embryos; [4],17
same,"Hatch/d4, portion of initial number of embryos",mice embryos; [4],45.9%
same,"comp/d2, number of embryos",mice embryos; [4],20
same,"8 cell/d2, number of embryos",mice embryos; [5],6
same,"Blast/d3, number of embryos",mice embryos; [5],34
same,"Blast/d3, portion of initial number of embryos",mice embryos; [5],94.44%
same,"Hatch/d4, number of embryos",mice embryos; [5],16
same,"Hatch/d4, portion of initial number of embryos",mice embryos; [5],44.44%
same,"comp/d2, number of embryos",mice embryos; [5],30
"[Ca+2].[Cl-].[Cl-] [CaCl2, calcium chloride]",muscle fibers after 7 days,skeletal muscle cultures; 7 days,"fewer, thinner and shorter muscle fibers"
same,time to formation of myotubes,skeletal muscle cultures; dry powder suspended in water,myotubes formation was observed later
same,"Blast/d3, number of embryos","mice embryos; Example 7 Test A, 1.7 mM",16
same,"Blast/d3, portion of initial number of embryos","mice embryos; Example 7 Test A, 1.7 mM",64%
same,"Comp/d2, portion of initial number of embryos","mice embryos; Example 7 Test A, 1.7 mM",64%
same,"comp/d2, number of embryos","mice embryos; Example 7 Test A, 1.7 mM",16
same,"Blast/d3, number of embryos","mice embryos; Example 7 Test B, 1.7 mM",20
same,"Blast/d3, portion of initial number of embryos","mice embryos; Example 7 Test B, 1.7 mM",74%
same,"Comp/d2, portion of initial number of embryos","mice embryos; Example 7 Test B, 1.7 mM",70%
same,"Hatch/d4, number of embryos","mice embryos; Example 7 Test B, 1.7 mM",11
same,"Hatch/d4, portion of initial number of embryos","mice embryos; Example 7 Test B, 1.7 mM",40.7%
same,"comp/d2, number of embryos","mice embryos; Example 7 Test B, 1.7 mM",20
same,"Blast/d3, number of embryos","mice embryos; Example 8, 1.7 mM",8
same,"Blast/d3, portion of initial number of embryos","mice embryos; Example 8, 1.7 mM",80%
same,"Comp/d2, portion of initial number of embryos","mice embryos; Example 8, 1.7 mM",30%
same,"Hatch/d4, number of embryos","mice embryos; Example 8, 1.7 mM",3
same,"Hatch/d4, portion of initial number of embryos","mice embryos; Example 8, 1.7 mM",30%
same,"comp/d2, number of embryos","mice embryos; Example 8, 1.7 mM",3
same,"Blast/d3, number of embryos","mice embryos; Example 9, 1.7 mM",24
same,"Blast/d3, portion of initial number of embryos","mice embryos; Example 9, 1.7 mM",80%
same,"Comp/d2, portion of initial number of embryos","mice embryos; Example 9, 1.7 mM",53.3%
same,"Hatch/d4, number of embryos","mice embryos; Example 9, 1.7 mM",13
same,"Hatch/d4, portion of initial number of embryos","mice embryos; Example 9, 1.7 mM",43.3%
same,"comp/d2, number of embryos","mice embryos; Example 9, 1.7 mM",16
same,"8Cell/d2, number of embryos","mice embryos; Example 10, 1.7 mM, embryos of each of 4 mice (5 months old) grown separately, one line per mouse",0 (2×) and 4 and 2
same,"Blast/d3, number of embryos",mice embryos; [6],2 and 5 and 12 and 1
same,"Blast/d3, portion of initial number of embryos",mice embryos; [6],(8.3) %; also recorded: (22.2) %; also recorded: (50) %; also recorded: (66.7) %
same,"Hatch/d4, number of embryos",mice embryos; [6],0 (2×) and 3 and 7
same,"Hatch/d4, portion of initial number of embryos",mice embryos; [6],(0) %; also recorded: (30) %; also recorded: (41.2) %
same,"comp/d2, number of embryos",mice embryos; [6],3 and 6 and 10 and 1
same,effect on embryonic development (blastocysts and hatched blastocysts),"mice embryos; Example 14, 1.7 mM",negative effect on embryonic development
same,"8 cell/d2, number of embryos",mice embryos; [7],6
same,"Blast/d3, number of embryos",mice embryos; [7],10
same,"Blast/d3, portion of initial number of embryos",mice embryos; [7],90.90%
same,"Hatch/d4, number of embryos",mice embryos; [7],4
same,"Hatch/d4, portion of initial number of embryos",mice embryos; [7],36.36%
same,"comp/d2, number of embryos",mice embryos; [7],5
same,"muscle contractions first observed, day after seeding",mdx cell line,≥ 10 days
same,Cultures with axonal regeneration (%),[1],50%
same,Alizarin Red staining (calcium deposition),MBA-13 cells,weak signal
